Measured values taken from paper PMC10178127, “Immunomodulatory Effects of the Pea Defensin Psd1 in the Caco-2/Immune Cells Co-Culture upon Candida albicans Infection” (International Journal of Molecular Sciences, 2023).

System: Caco-2 polarized monolayer
Experiment: Multiplex xMAP cytokine production, Caco-2 monolayer without immune cells
Type: cell-based, human
Conditions: 24 h; for EGF level / Eotaxin level / FGF-2 level / FLT-3L level / Fractalkine level / G-CSF level / GM-CSF level / GROa level / IFNa2 level / IFNg level / IL-1RA level / IL-1a level / IL-1b level / IL-2 level / IL-3 level / IL-4 level / IL-5 level / IL-6 level / IL-7 level / IL-8 level / IL-9 level / IL-10 level / IL-12 (p40) level / IL-12 (p70) level / IL-13 level / IL-15 level / IL-17A level / IL-17E/IL-25 level / IL-17F level / IL-18 level / IL-22 level / IL-27 level / IP-10 level / M-GSF level / MCP-1 level / MCP-3 level / MDC level / MIG level / MIP-1a level / MIP-1b level / PDGF-AA level / PDGF-AB/BB level / RANTES level / TGF-a level / TNFa level / TNFb level / VEGFa level / sCD40L level: 2 µM apical, basolateral medium
Procedure: To estimate the impact of Candida albicans on cytokine production by intestinal-like epithelium, Caco-2 polarized monolayer without immune cells was used. […] A decrease in concentrations of IL-13 and IL-18 was also observed.
For growing cells, mimicking epithelial barriers in vitro, Caco-2 cells were seeded onto 24-well polycarbonate Millicell cell culture inserts (0.4 μm, 0.6 cm^2 surface area) (Millipore, Burlington, MA, USA), precoated with 0.2% bovine gelatin (Sigma-Aldrich), at a density of 2.5 × 10^5 cells/cm^2. The cells were grown for 21 days in a complete DMEM/F12 (1:1) medium with re-feeding every 2–3 days with a fresh complete medium. The integrity of the Caco-2 cell monolayer was checked by measuring the transepithelial electrical resistance (TEER) using a Millicell-ERS Voltohmmeter (Millipore). Only cell monolayers with TEER > 400 Ωcm^2 (after subtracting TEER in blank inserts without Caco-2 cells) were used in transport across epithelial monolayer and cytokine production experiments.
Monocytes and moDCs were seeded into the wells of 48- and 24-well plates in the complete RPMI-1640 medium supplemented with 10% human AB serum (HABS, Capricorn Scientific) without antibiotics 24 h prior to the experiment, and kept in a humidified CO2-incubator (5% CO2, 37 °C). After 24 h, the medium in the wells of the 48-well plate was replaced by fresh complete RPMI-1640 medium with 10% HABS, supplemented with 2 µM of Psd1 for the sample wells or fresh medium alone for the control wells. Medium in the wells of the 24-well plate was replaced by fresh complete RPMI-1640 medium with 10% human serum without antibiotics. Then, Millicell inserts with Caco-2 monolayers with TEER > 400 Ωcm^2 were placed into the wells of the 24-well plate, containing monocytes or moDCs. Wells with Millicell inserts with Caco-2 monolayers without immune cells were used as control wells. Medium in apical chambers of Millicell inserts was replaced by fresh complete RPMI-1640 with 10% human serum medium containing Psd1 at the final concentration of 2 µM or Candida albicans at the concentration of 5 × 10^4 cells/mL or yeast cells together with the pea defensin at the same concentration. Fresh complete RPMI-1640 medium only with 10% human serum and without antibiotics was used in control wells. Plates were kept in CO2-incubator (5% CO2, 37 °C) for another 24 h. Culture supernatants from the wells of the 48-well plate and basolateral chambers of the 24-well plate were collected and stored at −70 °C degrees less than one month prior to the analytes assessment.
The following 48 analytes were measured at a protein level by multiplex xMAP technology using the MILLIPLEX Human Cytokine/Chemokine/Growth Factor Panel A kit (HCYTA-60K-PX48, Merck, Darmstadt, Germany): sCD40L, EGF, Eotaxin-1/CCL11, FGF-2/FGF-basic, Flt-3 ligand, Fractalkine/CX3CL1, G-CSF, GM-CSF, GROα/CXCL1, IFNα2, IFNγ, IL-1α, IL-1β, IL-1RA, IL-2, IL-3, IL-4, IL-5, IL-6, IL-7, IL-8/CXCL8, IL-9, IL-10, IL-12(p40), IL-12(p70), IL-13, IL-15, IL-17A/CTLA8, IL-17E/IL-25, IL-17F, IL-18, IL-22, IL-27, IP-10/CXCL10, MCP-1/CCL2, MCP-3/CCL7, M-CSF, MDC/CCL22, MIG/CXCL9, MIP-1α/CCL3, MIP-1β/CCL4, PDGF-AA, PDGF-AB/BB, RANTES/CCL5, TGFα, TNFα, TNFβ, and VEGF-A. Multiplex-based assay read-out was performed using the MAGPIX system (Merck) with the xPONENT 4.2 software (Merck) in accordance with the manufacturer’s instruction with overnight incubation of the samples with primary antibodies. A final analysis was carried out with the MILLIPLEX Analyst v5.1 software (Merck). Measurements were performed twice for each sample. Release of the analytes in control and experimental samples was compared with an unpaired two-sample t-test using GraphPad Prism v.8.0.1 (GraphPad Software, Inc., San Diego, CA, USA). The p values ≤ 0.05 were considered significant.

Psd1: pea defensin from Pisum sativum (UNIPROT P81929), recombinant peptide overexpressed in Escherichia coli (KTCEHLADTYRGVCFTNASCDDHCKNKAHLISGTCHNWKCFCTQNC; UniProt P81929 1-46, looked up)
EGF level (Caco-2+Candida+Psd1): 1.19 pg/mL | Eotaxin level (Caco-2+Candida+Psd1): <3.52↓ pg/ml | FGF-2 level (Caco-2+Candida+Psd1): <13.35↓ pg/ml | FLT-3L level (Caco-2+Candida+Psd1): <0.40↓ pg/ml | Fractalkine level (Caco-2+Candida+Psd1): <17.82↓ pg/ml | G-CSF level (Caco-2+Candida+Psd1): <3.01↓ pg/ml | GM-CSF level (Caco-2+Candida+Psd1): <0.89↓ pg/ml | GROa level (Caco-2+Candida+Psd1): 34.82 pg/mL | IFNa2 level (Caco-2+Candida+Psd1): <4.56↓ pg/ml | IFNg level (Caco-2+Candida+Psd1): <2.23↓ pg/ml | IL-1RA level (Caco-2+Candida+Psd1): <0.66↓ pg/ml | IL-1a level (Caco-2+Candida+Psd1): <3.42↓ pg/ml | IL-1b level (Caco-2+Candida+Psd1): <2.26↓ pg/ml | IL-2 level (Caco-2+Candida+Psd1): <0.95↓ pg/ml | IL-3 level (Caco-2+Candida+Psd1): <0.60↓ pg/ml | IL-4 level (Caco-2+Candida+Psd1): <1.14↓ pg/ml | IL-5 level (Caco-2+Candida+Psd1): <0.30↓ pg/ml | IL-6 level (Caco-2+Candida+Psd1): 0.67 pg/mL | IL-7 level (Caco-2+Candida+Psd1): <0.38↓ pg/ml | IL-8 level (Caco-2+Candida+Psd1): 4.2 pg/mL | IL-9 level (Caco-2+Candida+Psd1): <2.08↓ pg/ml | IL-10 level (Caco-2+Candida+Psd1): <1.24↓ pg/ml | IL-12 (p40) level (Caco-2+Candida+Psd1): <3.56↓ pg/ml | IL-12 (p70) level (Caco-2+Candida+Psd1): <1.68↓ pg/ml | IL-13 level (Caco-2+Candida+Psd1): <2.61↓ pg/ml | IL-15 level (Caco-2+Candida+Psd1): <1.43↓ pg/ml | IL-17A level (Caco-2+Candida+Psd1): <2.09↓ pg/ml | IL-17E/IL-25 level (Caco-2+Candida+Psd1): <18.85↓ pg/ml | IL-17F level (Caco-2+Candida+Psd1): <19.03↓ pg/ml | IL-18 level (Caco-2+Candida+Psd1): 2.95 pg/mL | IL-22 level (Caco-2+Candida+Psd1): <5.23↓ pg/ml | IL-27 level (Caco-2+Candida+Psd1): <11.43↓ pg/ml | IP-10 level (Caco-2+Candida+Psd1): 5.8 pg/mL | M-GSF level (Caco-2+Candida+Psd1): <24.28↓ pg/ml | MCP-1 level (Caco-2+Candida+Psd1): <2.03↓ pg/ml | MCP-3 level (Caco-2+Candida+Psd1): <4.18↓ pg/ml | MDC level (Caco-2+Candida+Psd1): <0.30↓ pg/ml | MIG level (Caco-2+Candida+Psd1): <3.51↓ pg/ml | MIP-1a level (Caco-2+Candida+Psd1): <1.88↓ pg/ml | MIP-1b level (Caco-2+Candida+Psd1): <0.16↓ pg/ml | PDGF-AA level (Caco-2+Candida+Psd1): 160.02 pg/mL | PDGF-AB/BB level (Caco-2+Candida+Psd1): <5.84↓ pg/ml | RANTES level (Caco-2+Candida+Psd1): <0.62↓ pg/ml | TGF-a level (Caco-2+Candida+Psd1): <0.63↓ pg/ml | TNFa level (Caco-2+Candida+Psd1): <3.89↓ pg/ml | TNFb level (Caco-2+Candida+Psd1): 1.64 pg/mL | VEGFa level (Caco-2+Candida+Psd1): 197.1 pg/mL | sCD40L level (Caco-2+Candida+Psd1): <4.88↓ pg/ml | EGF level (Caco-2+Psd1): 1.19 pg/mL | Eotaxin level (Caco-2+Psd1): <3.52↓ pg/ml | FGF-2 level (Caco-2+Psd1): <13.35↓ pg/ml | FLT-3L level (Caco-2+Psd1): 0.46 pg/mL | Fractalkine level (Caco-2+Psd1): <17.82↓ pg/ml | G-CSF level (Caco-2+Psd1): <3.01↓ pg/ml | GM-CSF level (Caco-2+Psd1): <0.89↓ pg/ml | GROa level (Caco-2+Psd1): 27.77 pg/mL | IFNa2 level (Caco-2+Psd1): <4.56↓ pg/ml | IFNg level (Caco-2+Psd1): <2.23↓ pg/ml | IL-1RA level (Caco-2+Psd1): <0.66↓ pg/ml | IL-1a level (Caco-2+Psd1): 3.99 pg/mL | IL-1b level (Caco-2+Psd1): <2.26↓ pg/ml | IL-2 level (Caco-2+Psd1): <0.95↓ pg/ml | IL-3 level (Caco-2+Psd1): <0.60↓ pg/ml | IL-4 level (Caco-2+Psd1): 2.07 pg/mL | IL-5 level (Caco-2+Psd1): <0.30↓ pg/ml | IL-6 level (Caco-2+Psd1): 2.29 pg/mL | IL-7 level (Caco-2+Psd1): <0.38↓ pg/ml | IL-8 level (Caco-2+Psd1): 11.44 pg/mL | IL-9 level (Caco-2+Psd1): <2.08↓ pg/ml | IL-10 level (Caco-2+Psd1): <1.24↓ pg/ml | IL-12 (p40) level (Caco-2+Psd1): <3.56↓ pg/ml | IL-12 (p70) level (Caco-2+Psd1): <1.68↓ pg/ml | IL-13 level (Caco-2+Psd1): 6.35 pg/mL | IL-15 level (Caco-2+Psd1): <1.43↓ pg/ml | IL-17A level (Caco-2+Psd1): <2.09↓ pg/ml | IL-17E/IL-25 level (Caco-2+Psd1): <18.85↓ pg/ml | IL-17F level (Caco-2+Psd1): <19.03↓ pg/ml | IL-18 level (Caco-2+Psd1): 3.42 pg/mL | IL-22 level (Caco-2+Psd1): <5.23↓ pg/ml | IL-27 level (Caco-2+Psd1): <11.43↓ pg/ml | IP-10 level (Caco-2+Psd1): 7.04 pg/mL | M-GSF level (Caco-2+Psd1): <24.28↓ pg/ml | MCP-1 level (Caco-2+Psd1): <2.03↓ pg/ml | MCP-3 level (Caco-2+Psd1): <4.18↓ pg/ml | MDC level (Caco-2+Psd1): <0.30↓ pg/ml | MIG level (Caco-2+Psd1): <3.51↓ pg/ml | MIP-1a level (Caco-2+Psd1): <1.88↓ pg/ml | MIP-1b level (Caco-2+Psd1): <0.16↓ pg/ml | PDGF-AA level (Caco-2+Psd1): 347.49 pg/mL | PDGF-AB/BB level (Caco-2+Psd1): <5.84↓ pg/ml | RANTES level (Caco-2+Psd1): <0.62↓ pg/ml | TGF-a level (Caco-2+Psd1): 0.67 pg/mL | TNFa level (Caco-2+Psd1): <3.89↓ pg/ml | TNFb level (Caco-2+Psd1): 5.02 pg/mL | VEGFa level (Caco-2+Psd1): 413.86 pg/mL | sCD40L level (Caco-2+Psd1): <4.88↓ pg/ml | IL-6, IL-8/CXCL8, and IP-10 production (Caco-2, 2 μM apical): increase | direct immunomodulatory action on epithelial cells (Caco-2, 2 μM apical): no significant direct immunomodulatory action
